Measured values reported in patent US20250230165A1, “HETEROCYCLIC COMPOUNDS FOR USE IN THE TREATMENT OF CANCER” (ARTIOS PHARMA LIMITED, priority 2021, published 2025).

Target: T1, Human Polθ polymerase domain (aa1820-2590) (Homo sapiens, UniProt O75417)
T1 construct: Human Polθ polymerase domain (aa1820-2590) was expressed in E. coli; made in house; host or cells: E. coli
T1 sequence (O75417 1820-2590): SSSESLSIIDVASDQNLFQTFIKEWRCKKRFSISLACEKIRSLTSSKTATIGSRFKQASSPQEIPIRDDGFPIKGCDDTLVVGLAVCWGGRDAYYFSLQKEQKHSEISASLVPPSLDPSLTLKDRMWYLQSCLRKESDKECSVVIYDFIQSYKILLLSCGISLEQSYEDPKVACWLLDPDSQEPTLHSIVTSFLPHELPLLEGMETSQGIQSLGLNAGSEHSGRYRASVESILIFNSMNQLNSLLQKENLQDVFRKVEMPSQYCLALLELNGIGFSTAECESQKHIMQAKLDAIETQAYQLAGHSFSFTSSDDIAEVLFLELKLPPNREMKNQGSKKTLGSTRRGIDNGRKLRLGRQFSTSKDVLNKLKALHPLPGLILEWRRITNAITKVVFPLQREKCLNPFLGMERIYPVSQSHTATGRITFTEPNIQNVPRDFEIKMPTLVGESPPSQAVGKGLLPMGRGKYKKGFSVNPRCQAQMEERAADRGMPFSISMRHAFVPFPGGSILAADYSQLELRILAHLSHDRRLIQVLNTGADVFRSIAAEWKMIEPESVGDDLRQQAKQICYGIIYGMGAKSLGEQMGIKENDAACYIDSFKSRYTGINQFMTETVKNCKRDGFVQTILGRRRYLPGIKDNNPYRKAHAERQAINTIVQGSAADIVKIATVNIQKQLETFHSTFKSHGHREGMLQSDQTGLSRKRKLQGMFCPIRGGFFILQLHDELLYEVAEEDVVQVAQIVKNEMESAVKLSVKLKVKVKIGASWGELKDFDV
Test: Polθ Polymerase Domain Kinact/KI Assay (PicoGreen)
Type: biochemical
Settings: 0.8 nM Polθ, 100 nM DNA substrate, kobs vs [I] fit for 2-step covalent inhibitor
In short: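 Kinact and KI derive from fitting kobs versus [I], where kobs were fitted from EDTA-stopped PicoGreen time courses (up to 60 min) in Tris pH 7.5 buffer with 1% DMSO, 0.8 nM enzyme, 100 nM DNA and […].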

Row | Kinact/Kl | Compound
1 | 1.08e+06 M⁻¹ s⁻¹ | C=CC(=O)N1CC(N2CC[C@H](CN3C[C@H]4CC(=O)N(c5cc(C(F)(F)F)cc(C)n5)[C@@H]4C(=O)N(C)c4cccc(F)c43)C2)C1 [Example 213, (3aR,11aS)-5-(((S)-1-(1-acryloylazetidin-3-yl)pyrrolidin-3-yl)methyl)-6-fluoro-10-methyl-1-(6-methyl-4-(trifluoromethyl)pyridin-2-yl)-1,3a,4,5,10,11a-hexahydro-2H-benzo[b]pyrrolo [2,3-f][1,4] diazocine-2,11(3H)-dione]
2 | 320000 M⁻¹ s⁻¹ | C=CC(=O)N1CC(N2CC[C@@H](CN3C[C@H]4CC(=O)N(c5cc(C(F)(F)F)cc(C)n5)[C@@H]4C(=O)N(C)c4cccc(F)c43)C2)C1 [Example 214, (3aR,11aS)-5-(((R)-1-(1-acryloylazetidin-3-yl)pyrrolidin-3-yl)methyl)-6-fluoro-10-methyl-1-(6-methyl-4-(trifluoromethyl)pyridin-2-yl)-1,3a,4,5,10,11a-hexahydro-2H-benzo[b]pyrrolo [2,3-f][1,4] diazocine-2,11 (3H)-dione]
3 | 1.21e+06 M⁻¹ s⁻¹ | C=CC(=O)N1CC(N2CCC(CCN3C[C@H]4CC(=O)N(c5cc(C(F)(F)F)cc(C)n5)[C@@H]4C(=O)N(C)c4cccc(F)c43)CC2)C1 [Example 215, (3aR,11aS)-5-(2-(1-(1-acryloylazetidin-3-yl)piperidin-4-yl)ethyl)-6-fluoro-10-methyl-1-(6-methyl-4-(trifluoromethyl)pyridin-2-yl)-1,3a,4,5,10,11a-hexahydro-2H-benzo[b]pyrrolo [2,3-f][1,4] diazocine-2,11 (3H)-dione]
4 | 430000 M⁻¹ s⁻¹ | C=CC(=O)N1CC(N2CCC(N3C[C@H]4CC(=O)N(c5cc(C(F)(F)F)cc(C)n5)[C@@H]4C(=O)N(C)c4cccc(F)c43)CC2)C1 [Example 216, (3aR,11aS)-5-(1-(1-acryloylazetidin-3-yl)piperidin-4-yl)-6-fluoro-10-methyl-1-(6-methyl-4-(trifluoromethyl)pyridin-2-yl)-1,3a,4,5,10,11a-hexahydro-2H-benzo[b]pyrrolo [2,3-f][1,4] diazocine-2,11(3H)-dione]
5 | 1.59e+06 M⁻¹ s⁻¹ | C=CC(=O)N1CC(N2CCC(F)(CN3C[C@H]4CC(=O)N(c5cc(C(F)(F)F)cc(C)n5)[C@@H]4C(=O)N(C)c4cccc(Cl)c43)CC2)C1 [Example 217, (3aR,11aS)-5-((1-(1-acryloylazetidin-3-yl)-4-fluoropiperidin-4-yl)methyl)-6-chloro-10-methyl-1-(6-methyl-4-(trifluoromethyl)pyridin-2-yl)-1,3a,4,5,10,11a-hexahydro-2H-benzo[b] pyrrolo[2,3-f] [1,4]diazocine-2,11(3H)-dione]
6 | 1.62e+06 M⁻¹ s⁻¹ | C=CC(=O)N1CC(N2CC[C@H](CN3C[C@H]4CC(=O)N(c5cc(C(F)(F)F)cc(C)n5)[C@@H]4C(=O)N(C)c4cccc(Cl)c43)C2)C1 [Example 218, (3aR,11aS)-5-(((S)-1-(1-acryloylazetidin-3-yl)pyrrolidin-3-yl)methyl)-6-chloro-10-methyl-1-(6-methyl-4-(trifluoromethyl)pyridin-2-yl)-1,3a,4,5,10,11a-hexahydro-2H-benzo[b]pyrrolo [2,3-f][1,4] diazocine-2,11 (3H)-dione]
7 | 560000 M⁻¹ s⁻¹ | C=CC(=O)N1CC(N2CC[C@@H](CN3C[C@H]4CC(=O)N(c5cc(C(F)(F)F)cc(C)n5)[C@@H]4C(=O)N(C)c4cccc(Cl)c43)C2)C1 [Example 219, (3aR,11aS)-5-(((R)-1-(1-acryloylazetidin-3-yl)pyrrolidin-3-yl)methyl)-6-chloro-10-methyl-1-(6-methyl-4-(trifluoromethyl)pyridin-2-yl)-1,3a,4,5,10,11a-hexahydro-2H-benzo[b]pyrrolo [2,3-f][1,4] diazocine-2,11(3H)-dione]
8 | 3.66e+06 M⁻¹ s⁻¹ | C=CC(=O)N1CC(N2CC[C@@H](CCN3C[C@H]4CC(=O)N(c5cc(C(F)(F)F)cc(C)n5)[C@@H]4C(=O)N(C)c4cccc(Cl)c43)C2)C1 [Example 220, (3aR,11aS)-5-(2-((S)-1-(1-acryloylazetidin-3-yl)pyrrolidin-3-yl)ethyl)-6-chloro-10-methyl-1-(6-methyl-4-(trifluoromethyl)pyridin-2-yl)-1,3a,4,5,10,11a-hexahydro-2H-benzo[b]pyrrolo [2,3-f][1,4] diazocine-2,11(3H)-dione]
9 | 3.03e+06 M⁻¹ s⁻¹ | C=CC(=O)N1CC(N2CC[C@H](CCN3C[C@H]4CC(=O)N(c5cc(C(F)(F)F)cc(C)n5)[C@@H]4C(=O)N(C)c4cccc(Cl)c43)C2)C1 [Example 221, (3aR,11aS)-5-(2-((R)-1-(1-acryloylazetidin-3-yl)pyrrolidin-3-yl)ethyl)-6-chloro-10-methyl-1-(6-methyl-4-(trifluoromethyl)pyridin-2-yl)-1,3a,4,5,10,11a-hexahydro-2H-benzo[b] pyrrolo[2,3-f] [1,4]diazocine-2,11(3H)-dione]
10 | 2.04e+06 M⁻¹ s⁻¹ | C=CC(=O)N1CCC(N2CCC(CN3C[C@H]4CC(=O)N(c5cc(C(F)(F)F)cc(C)n5)[C@@H]4C(=O)N(C)c4cccc(Cl)c43)CC2)C1 (stereo partly drawn) [Example 222, (3aR,11aS)-5-((1-(1-acryloylpyrrolidin-3-yl)piperidin-4-yl)methyl)-6-chloro-10-methyl-1-(6-methyl-4-(trifluoromethyl)pyridin-2-yl)-1,3a,4,5,10,11a-hexahydro-2H-benzo[b]pyrrolo [2,3-f][1,4] diazocine-2,11(3H)-dione]
11 | 1.62e+06 M⁻¹ s⁻¹ | C=CC(=O)N1CC(N2CC[C@H](CN3C[C@H]4CC(=O)N(c5cc(C(F)(F)F)cc(C)n5)[C@@H]4C(=O)N(C)c4cccc(C)c43)C2)C1 [Example 223, (3aR,11aS)-5-(((S)-1-(1-acryloylazetidin-3-yl)pyrrolidin-3-yl)methyl)-6,10-dimethyl-1-(6-methyl-4-(trifluoromethyl)pyridin-2-yl)-1,3a,4,5,10,11a-hexahydro-2H-benzo[b]pyrrolo [2,3-f][1,4] diazocine-2,11(3H)-dione]
12 | 4.21e+06 M⁻¹ s⁻¹ | C=CC(=O)N1CC(N2CC[C@@H](CN3C[C@H]4CC(=O)N(c5cc(C(F)(F)F)cc(C)n5)[C@@H]4C(=O)N(C)c4cccc(C)c43)C2)C1 [Example 224, (3aR,11aS)-5-(((R)-1-(1-acryloylazetidin-3-yl)pyrrolidin-3-yl)methyl)-6,10-dimethyl-1-(6-methyl-4-(trifluoromethyl)pyridin-2-yl)-1,3a,4,5,10,11a-hexahydro-2H-benzo[b]pyrrolo [2,3-f][1,4] diazocine-2,11(3H)-dione]
13 | 2.26e+06 M⁻¹ s⁻¹ | C=CC(=O)N1Cc2ncc(CN3C[C@H]4CC(=O)N(c5cc(C(F)(F)F)cc(C)n5)[C@@H]4C(=O)N(C)c4cccc(C)c43)nc2C1 [Example 228, (3aR,11aS)-5-((6-acryloyl-6,7-dihydro-5H-pyrrolo[3,4-b]pyrazin-2-yl)methyl)-6,10-dimethyl-1-(6-methyl-4-(trifluoromethyl)pyridin-2-yl)-1,3a,4,5,10,11a-hexahydro-2H-benzo[b]pyrrolo[2,3-f][1,4]diazocine-2,11(3H)-dione]
14 | 730000 M⁻¹ s⁻¹ | C=CC(=O)N1Cc2ncc(CN3C[C@H]4CC(=O)N(c5cc(C(F)(F)F)cc(C)n5)[C@@H]4C(=O)N(C)c4cccc(Cl)c43)nc2C1 [Example 229, (3aR,11aS)-5-((6-acryloyl-6,7-dihydro-5H-pyrrolo[3,4-b]pyrazin-2-yl)methyl)-6-chloro-10-methyl-1-(6-methyl-4-(trifluoromethyl)pyridin-2-yl)-1,3a,4,5,10,11a-hexahydro-2H-benzo[b]pyrrolo[2,3-f][1,4]diazocine-2,11(3H)-dione]
15 | 740000 M⁻¹ s⁻¹ | C=CC(=O)N1Cc2nc(CN3C[C@H]4CC(=O)N(c5cc(C(F)(F)F)cc(C)n5)[C@@H]4C(=O)N(C)c4cccc(C)c43)ccc2C1CO (stereo partly drawn) [Example 238, (3aR,11aS)-5-((6-acryloyl-5-(hydroxymethyl)-6,7-dihydro-5H-pyrrolo[3,4-b]pyridin-2-yl)methyl)-6,10-dimethyl-1-(6-methyl-4-(trifluoromethyl)pyridin-2-yl)-1,3a,4,5,10,11a-hexahydro-2H-benzo[b]pyrrolo[2,3-f][1,4]diazocine-2,11(3H)-dione]
16 | 730000 M⁻¹ s⁻¹ | C=CC(=O)N1Cc2nc(CN3C[C@H]4CC(=O)N(c5cc(C(F)(F)F)cc(C)n5)[C@@H]4C(=O)N(C)c4cccc(Cl)c43)ccc2C1CO (stereo partly drawn) [Example 239, (3aR,11aS)-5-((6-acryloyl-5-(hydroxymethyl)-6,7-dihydro-5H-pyrrolo[3,4-b]pyridin-2-yl)methyl)-6-chloro-10-methyl-1-(6-methyl-4-(trifluoromethyl)pyridin-2-yl)-1,3a,4,5,10,11a-hexahydro-2H-benzo[b]pyrrolo[2,3-f][1,4]diazocine-2,11(3H)-dione]
